Source: patent US7332596B1 (priority 1999, dated 2008)
Where no end group is shown, it is not given here.

Tests used:
[1] = Freshly isolated potato intercellular wash fluid (pIWF); conditions: Russet Burbank potato, up to 5 minutes

Row | Compound | IC50 (Phytophthora infestans) [nM] | IC50 (Fusarium culmorum) [nM] | cleaved bond [1] | also measured
1 | CSCC[C@H](N)C(=O)N[C@@H](CCCNC(=N)N)C(=O)N[C@@H](C)C(=O)N[C@@H](CCCCN)C(=O)N[C@@H](Cc1c[nH]c2ccccc12)C(=O)N[C@@H](CCCNC(=N)N)C(=O)N[C@@H](CCCCN)C(=O)N[C@@H](CCCCN)C(=O)N[C@@H](CCCNC(=N)N)C(=O)N[C@H](C(=O)N[C@@H](CCCNC(=N)N)C(=O)N[C@@H](CCCNC(=N)N)C(=O)N[C@@H](CC(C)C)C(=O)N[C@@H](CCCCN)C(=O)N[C@@H](CCCNC(=N)N)C(=O)N[C@@H](CCCCN)C(=O)N[C@@H](CCCNC(=N)N)C(=O)N[C@@H](CCCNC(=N)N)C(=O)N[C@@H](CCCCN)C(=O)N[C@H](C(=O)N[C@@H](CCCNC(=N)N)C(=O)N[C@@H](C)C(=O)N[C@@H](CCCNC(=N)N)C(=O)N[C@@H](CO)C(=O)N[C@@H](CCCCN)C(=O)O)C(C)C)[C@@H](C)O [YL41] | 4500 | 1200 | – | –
2 | MAVPKKRTSISKKRIRKKIWKRKGYWTSLKAFSLGKSLSTGNSKSFFVQQNK [BL32] | 6600 | 1600 | – | –
3 | MKIRASIRRISGKSRPIRRRKRVMIISSNPRHKQKQG [BL36] | 3400 | 2300 | – | –
4 | MNSHRLPGKGRRMGPIMGHTMHYRRMIITLQSSYSIPPLRKKRT [SL23] | 7700 | 2500 | – | –
5 | VKVGLATKAERASRQQRKQRKNRQKTLMGTAKVKGAKAKK | – | – | A-T and L-M and M-G and A-K | –
6 | VKVGLATKAERASRQQRKQRKNRQKTLMGTAQVKGAKAKK | – | – | A-T and L-M and M-G and A-Q | –
7 | VKVGLATKAERASRQQRKQRKNRQKTLRGTAKVKGAKAKK | – | – | A-T and L-R and R-G and A-K | –
8 | VKVGLATKAERASRQQRKQRKNRQKTLRGTAKVKGAKAKK [Synthetic FCWP1] | – | – | – | IC50 P. infestans High salt (Phytophthora infestans): 20 µg/mL; IC50 P. infestans Low salt (Phytophthora infestans): 10 µg/mL; IC50 S. nodorum High salt (S. nodorum): >170 µg/mL; IC50 S. nodorum Low salt (S. nodorum): 22 µg/mL; IC50 F. culmorum High salt (Fusarium culmorum): 85 µg/mL; IC50 F. culmorum Low salt (Fusarium culmorum): 6 µg/mL
9 | VKVGLATKAERASRQQRKQRKNRQKTLRGTAQVKGAKAKK | – | – | A-T and L-R and R-G and A-Q | –
10 | VKVGLATKAERASRQQRKQRKNRQKTLRGTRKVKGAKAKK | – | – | A-T and L-R and R-G and R-K | –
11 | VKVGLATKAERASRQQRKQRKNRQKTRRGTAKVKGAKAKK | – | – | R-R and G-T and A-K and A-T | –
12 | VKVGLATKAERASRQQRKQRKNRQKTRRGTRKVKGAKAKK | – | – | A-T and T-R and G-T and R-K | –
